Assays:
[1] = target: T1, METTL3/14 (Homo sapiens, UniProt Q86U44); assay: METTL3/14 methyltransferase activity assay (HTRF); type: biochemical; conditions: 10 concentrations, 3-fold dilution from 10 µM
T1 construct: purchased active motif 31570
Protocol: The final initial concentration of the compound was 10 µM, with 3-fold serial dilution to give a total of 10 concentrations. 100 nL of the compound was transferred to a 384-well plate and centrifuged at 1000 RPM. 2.5 µL of METTL3/14 (active motif, Cat No. 31570) was added to the test wells and incubated at 25°C for 10 min. 2.5 µL of METTL3-Biotin & SAM (GenScript) was added to the test wells andincubated at 25°C for 60 min. 2.5 µL of YTHDF1 (active motif, Cat No. 31608) was added to the test wells and centrifuged at 1000 RPM. 2.5 µL of Streptavidin-Tb (Perkin Elmer Cat No. 61SATLB) & Flag-mede (Perkin Elmer Cat No. 61FG2DLA) was added to the test wells and centrifuged at 1000 RPM. Incubated at 25°C for 60 min. HTRF was measured using a Plate reader. The results of each compound are shown in Table 1, where A+indicates <10nM, A indicates 10-100nM, B indicates 100-1000nM, and C indicates >1000nM.

[2] = test system: Kasumi-1 cells; assay: Kasumi-1 cell inhibitory activity (CellTiter-Glo, 5 days); type: cell-based; conditions: Homo sapiens, 120 h, 5 days incubation, CellTiter-Glo luminescence
Protocol: Test compounds were dissolved in DMSO to prep are a 250×final concentration solution. The initial concentration was 10 µM with 3-fold dilution, resulting in a total of ten concentration points. 4 µL of the compound solution was added to 96 µL of cell culture medium to dilute it to 10×the final concentration. On the first day, Kasumi-1 cells (purchased from Precedo) were suspended in cell culture medium at the desired density, 90 µL of the cell suspension was added to a 96-well plate, and 10 µL of 10×compound solution was added for incubation, with a final DMSO concentration of 0.4% in each well. Incubated at 37 °C, 5% CO2 for 5 days. Before measurement after 5 days, the test plate was placed at room temperature, 50 µL of CellTiter-Glo® reagent (purchased from Promega, Cat. No. G7573) was added, mixed on a shaker for 2 minutes to lyse the cells, and incubated at room temperature for 10 minutes to stabilize the […] signal. Luminescence values were recorded using Paradigm, and the response-concentration curve was fitted with Graphpad Pr ism 8.0 to calculate IC50values. The results of each compound are shown in Table2, where A indicates <100nM, B indicates 100-1000nM, and C indicates >1000nM. [formula]

[3] = Rat pharmacokinetic test, intravenous injection; type: in vivo; conditions: male, SD, plasma, rats, 2 mg/kg, average of 3 rats
Protocol: 3.1 Experimental Animals: Male SD rats, weighing 190-230 g, 3 rats per compound 3.2 Experimental Design: All animals were fasted overnight (10-14 hours) the day before admin istration and fed 4 hours after admin istration. For intravenous injection, the drug vehicle was 5% DMA + 5% Solutol + 90% Saline (DMA: dimethylacetamide; Solutol: polyethyleneglycol-15-hydroxystearate; Saline: normal saline), with a dosage of 2 mg/kg and an admin istration concentration of 1 mg/mL. Blood samples were collected via the jugular vein at 5 min, 15 min, 30 min, 1 h, 2 h, 4 h, 6 h, 8 h, and 24 h after admin istration. Approximately 0.25 mL of each sample was collected, anticoagulated with EDTA-K2, placed on ice after collection, and centrifuged to separate plasma within 1 hour (6000 g, 3 min, 2-8°C). Plasma samples were stored in a - 80°Crefrigerator before analys is.
3.3 Result Analys is:Collected samples were detected using LC-MS/MS method. Pharmacokinetic parameters were calculated from blood drug concentration data at different time points using Phoenix WinNonlin 8.2.0 to obtain the average values of in vivo clearance (CL) and AUC0-t. Table 3 CL and AUC of test compounds after intravenous injection in rats

T1 sequence (Q86U44 whole entry): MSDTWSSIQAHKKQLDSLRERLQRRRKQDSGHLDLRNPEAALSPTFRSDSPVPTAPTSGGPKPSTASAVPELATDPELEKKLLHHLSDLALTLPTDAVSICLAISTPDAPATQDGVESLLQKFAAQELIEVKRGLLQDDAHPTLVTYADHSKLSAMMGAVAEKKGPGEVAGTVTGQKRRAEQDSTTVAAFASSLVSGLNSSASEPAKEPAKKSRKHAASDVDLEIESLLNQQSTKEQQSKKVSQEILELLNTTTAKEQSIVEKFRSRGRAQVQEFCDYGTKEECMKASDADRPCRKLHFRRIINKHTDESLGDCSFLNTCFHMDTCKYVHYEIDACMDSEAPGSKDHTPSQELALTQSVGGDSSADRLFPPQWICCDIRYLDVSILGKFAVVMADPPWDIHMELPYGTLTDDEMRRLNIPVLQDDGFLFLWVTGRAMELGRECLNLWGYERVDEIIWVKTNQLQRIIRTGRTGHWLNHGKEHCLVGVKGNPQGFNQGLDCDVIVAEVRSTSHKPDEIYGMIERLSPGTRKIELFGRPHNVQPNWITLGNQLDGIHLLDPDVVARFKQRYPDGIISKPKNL
T1 sequence (Q9HCE5 whole entry partner): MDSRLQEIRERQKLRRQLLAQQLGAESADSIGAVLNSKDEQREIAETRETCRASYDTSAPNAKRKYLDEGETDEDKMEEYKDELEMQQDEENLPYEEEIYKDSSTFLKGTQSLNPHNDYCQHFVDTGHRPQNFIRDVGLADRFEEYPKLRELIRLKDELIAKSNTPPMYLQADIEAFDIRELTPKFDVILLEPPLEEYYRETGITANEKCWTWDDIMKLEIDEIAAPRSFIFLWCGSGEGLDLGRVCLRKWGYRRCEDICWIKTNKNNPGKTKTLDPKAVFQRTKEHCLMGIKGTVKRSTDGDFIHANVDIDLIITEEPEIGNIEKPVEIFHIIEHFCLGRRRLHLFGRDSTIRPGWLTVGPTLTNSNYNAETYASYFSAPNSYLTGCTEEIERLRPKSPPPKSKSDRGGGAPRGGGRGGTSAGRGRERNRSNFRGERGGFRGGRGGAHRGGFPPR

| Structure (SMILES) | IC50 [1] | AUC(0-t) [3] | clearance [3] | IC50 [2] |
| --- | --- | --- | --- | --- |
| O=C(NCc1ccc2cc(CNCC3CC(F)(F)C3)[nH]c2c1)c1cc(=O)n2cc3c(cc2n1)OCCO3 [Example 24, N-((2-((((3,3-Difluorocyclobutyl)methyl)amino)methyl)-1H-indol-6-yl)methyl)-9-oxo-2,3-dihydro-9H-[1,4]dioxino[2',3':4,5]pyrido[1,2-a]pyrimidine-7-carboxamide] | < 10 nM | 2180 ng·h/mL | 15.3 mL/min/kg | 100 to 1000 nM |
| O=C(NCc1ccc2cc(CNCC3CCC3)[nH]c2c1)c1cc(=O)n2cc3c(cc2n1)OCO3 [Example 25, N-((2-(((Cyclobutylmethyl)amino)methyl)-1H-indol-6-yl)methyl)-8-oxo-8H-[1,3]dioxolo[4',5':4,5]pyrido[1,2-a]pyrimidine-6-carboxamide] | < 10 nM | 1460 ng·h/mL | 22.7 mL/min/kg | 100 to 1000 nM |
| [2H]C([2H])(NCc1cc2ccc(CNC(=O)c3cc(=O)n4cc5c(cc4n3)OCO5)cc2[nH]1)C12CC(F)(C1)C2 [Example 72, N-((2-((((3-Fluorobicyclo[1.1.1]pentan-1-yl)methyl-d2)amino)methyl)-1H-indol-6-yl)methyl)-8-oxo-8H-[1,3]dioxolo[4',5':4,5]pyrido[1,2-a]pyrimidine-6-carboxamide] | < 10 nM |  |  | < 100 nM |
| O=C(NCc1ccc2cc(CNCC34CC(CO3)C4)[nH]c2c1)c1cc(=O)n2cc3c(cc2n1)OCCO3 [Example 77, N-((2-((((2-oxabicyclo[2.1.1]hexan-1-yl)methyl)amino)methyl)-1H-indol-6-yl)methyl)-9-oxo-2,3-dihydro-9H-[1,4]dioxino[2',3':4,5]pyrido[1,2-a]pyrimidin-7-carboxamide] | < 10 nM |  |  | 100 to 1000 nM |
| O=C(NCc1ccc2cc(CNCC34CC(CO3)C4)[nH]c2c1)c1cc(=O)n2cc3c(cc2n1)OCO3 [Example 84, N-((2-((((2-Oxabicyclo[2.1.1]hexan-1-yl)methyl)amino)methyl)-1H-indol-6-yl)methyl)-8-oxo-8H-[1,3]dioxolo[2',3':4,5]pyrido[1,2-a]pyrimidine-6-carboxamide] | < 10 nM |  |  | 100 to 1000 nM |
| O=C(NCc1cc2[nH]c(CNCC34CC(CO3)C4)cc2cc1F)c1cc(=O)n2cc3c(cc2n1)OCCO3 [Example 86, N-((2-((((2-Oxabicyclo[2.1.1]hexan-1-yl)methyl)amino)methyl)-5-fluoro-1H-indol-6-yl)methyl)-9-oxo-2,3-dihydro-9H-[1,4]dioxino[2',3':4,5]pyrido[1,2-a]pyrimidine-7-carboxamide] | 10 to 100 nM |  |  | 100 to 1000 nM |
| O=C(NCc1cc2[nH]c(CNCC34CC(CO3)C4)cc2cc1F)c1cc(=O)n2cc3c(cc2n1)OCO3 [Example 87, N-((2-((((2-Oxabicyclo[2.1.1]hexan-1-yl)methyl)amino)methyl)-5-fluoro-1H-indol-6-yl)methyl)-8-oxo-8H-[1,3]dioxolo[2',3':4,5]pyrido[1,2-a]pyrimidine-6-carboxamide] | 10 to 100 nM |  |  | 100 to 1000 nM |
| [2H]C([2H])(NCc1cc2ccc(CNC(=O)c3cc(=O)n4cc5c(cc4n3)OCCO5)cc2[nH]1)C12CC(CO1)C2 [Example 91, N-((2-((((2-Oxabicyclo[2.1.1]hexan-1-yl)methyl-d2)amino)methyl)-1H-indol-6-yl)methyl)-9-oxo-2,3-dihydro-9H-[1,4]dioxino[2',3':4,5]pyrido[1,2-a]pyrimidine-7-carboxamide] | 10 to 100 nM |  |  | 100 to 1000 nM |
| [2H]C([2H])(NCc1cc2ccc(CNC(=O)c3cc(=O)n4cc5c(cc4n3)OCO5)cc2[nH]1)C12CC(CO1)C2 [Example 92, N-((2-((((2-Oxabicyclo[2.1.1]hexan-1-yl)methyl-d2)amino)methyl)-1H-indol-6-yl)methyl)-8-oxo-8H-[1,3]dioxolo[4',5':4,5]pyrido[1,2-a]pyrimidine-6-carboxamide] | 10 to 100 nM |  |  | 100 to 1000 nM |
| [2H]C([2H])(NCc1cc2cc(F)c(CNC(=O)c3cc(=O)n4cc5c(cc4n3)OCCO5)cc2[nH]1)C12CC(F)(C1)C2 [Example 94, N-((5-fluoro-2-((((3-fluorobicyclo[1.1.1]pentan-1-yl)methyl-d2)amino)methyl)-1H-indol-6-yl)methyl)-9-oxo-2,3-dihydro-9H-[1,4]dioxino[2',3':4,5]pyrido[1,2-a]pyrimidine-7-carboxamide] | < 10 nM | 1120 ng·h/mL | 28.5 mL/min/kg | < 100 nM |
| [2H]C([2H])(NCc1cc2ccc(CNC(=O)c3cc(=O)n4cc5c(cc4n3)OCCO5)cc2[nH]1)C12CC(F)(C1)C2 [Example 95, N-((2-((((3-fluorobicyclo[1.1.1]pentan-1-yl)methyl-d2)amino)methyl)-1H-indol-6-yl)methyl)-9-oxo-2,3-dihydro-9H-[1,4]dioxino[2',3':4,5]pyrido[1,2-a]pyrimidine-7-carboxamide] | < 10 nM |  |  | < 100 nM |

Now from value to compound, other results behind:

| IC50 [1] | AUC(0-t) [3] | clearance [3] | Structure (SMILES) | IC50 [2] |
| --- | --- | --- | --- | --- |
| < 10 nM | 1440 ng·h/mL | 23 mL/min/kg | O=C(NCc1cc2[nH]c(CNCC3CCC3)cc2cc1F)c1cc(=O)n2cc3c(cc2n1)OCO3 [Example 73, N-((2-(((Cyclobutylmethyl)amino)methyl)-5-fluoro-1H-indol-6-yl)methyl)-8-oxo-8H-[1,3]dioxolo[4',5':4,5]pyrido[1,2-a]pyrimidine-6-carboxamide] | 100 to 1000 nM |
| 10 to 100 nM |  |  | O=C(NCc1cc2[nH]c(CNCC3CCC3)cc2cc1F)c1cc(=O)n2cc3c(cc2n1)OCCO3 [Example 85, N-((2-(((Cyclobutylmethyl)amino)methyl)-5-fluoro-1H-indol-6-yl)methyl)-9-oxo-2,3-dihydro-9H-[1,4]dioxino[2',3':4,5]pyrido[1,2-a]pyrimidine-7-carboxamide] | < 100 nM |
| < 10 nM | 1710 ng·h/mL | 19.1 mL/min/kg | [2H]C([2H])(NCc1cc2cc(F)c(CNC(=O)c3cc(=O)n4cc5c(cc4n3)OCO5)cc2[nH]1)C1CCC1 [Example 88, N-((2-(((Cyclobutylmethyl-d2)amino)methyl)-5-fluoro-1H-indol-6-yl)methyl)-8-oxo-8H-[1,3]dioxolo[2',3':4,5]pyrido[1,2-a]pyrimidine-6-carboxamide] | < 100 nM |
| < 10 nM | 1210 ng·h/mL | 28.1 mL/min/kg | [2H]C([2H])(NCc1cc2cc(F)c(CNC(=O)c3cc(=O)n4cc5c(cc4n3)OCO5)cc2[nH]1)C12CC(F)(C1)C2 [Example 89, N-((5-Fluoro-2-((((3-fluorobicyclo[1.1.1]pentan-1-yl)methyl-d2)amino)methyl)-1H-indol-6-yl)methyl)-8-oxo-8H-[1,3]dioxolo[2',3':4,5]pyrido[1,2-a]pyrimidine-6-carboxamide] | < 100 nM |
| < 10 nM |  |  | [2H]C([2H])(NCc1cc2cc(F)c(CNC(=O)c3cc(=O)n4cc5c(cc4n3)OCCO5)cc2[nH]1)C1CCC1 [Example 90, N-((2-(((Cyclobutylmethyl-d2)amino)methyl)-5-fluoro-1H-indol-6-yl)methyl)-9-oxo-2,3-dihydro-9H-[1,4]dioxino[2',3':4,5]pyrido[1,2-a]pyrimidine-7-carboxamide] | < 100 nM |
| 10 to 100 nM |  |  | [2H]C([2H])(NCc1cc2cc(F)c(CNC(=O)c3cc(=O)n4cc5c(cc4n3)OCO5)cc2[nH]1)C12CC(CO1)C2 [Example 93, N-((2-((((2-Oxabicyclo[2.1.1]hexan-1-yl)methyl-d2)amino)methyl)-5-fluoro-1H-indol-6-yl)methyl)-8-oxo-8H-[1,3]dioxolo[4',5':4,5]pyrido[1,2-a]pyrimidine-6-carboxamide] | 100 to 1000 nM |
